row,Compound,melting point [°C]
1,NC(=O)OC(=O)[C@@H]1Cc2ccccc2CN1C(=O)OCc1ccccc1,136 to 138
2,Cc1nc(CN(C(=O)CCl)c2c(C)cccc2C)cs1,62 to 64
3,COc1ccc2c(Cc3ccc(OC4CCCCC4N(C)C)cc3)c(-c3ccc(OCCN4CCCC4)cc3)sc2c1 (configuration not stated),58 to 61
4,O=C(NCc1ccccn1)Nc1cc(N2CC(Cc3ccccc3)CC2=O)ccn1 (configuration not stated),215 to 220
5,NS(=O)(=O)c1cc(CCNC(=O)/C=C/c2cccs2)ccc1OCCOC(F)(F)F,203 to 205
6,O=C(N[C@H](Cc1cccc(OC(F)(F)C(F)F)c1)[C@@H](O)c1ccc(F)nc1)c1cccc2c1C=CCCC2 (racemic),140 to 142
7,COC(=O)CCc1nc(-c2cc3ccccc3o2)no1,112 to 113
8,O=C(O)c1ccc(SCC(=O)C23CC4CC(CC(C4)C2)C3)nc1,174 to 176
9,Cc1ccc(N2CCC(CCOc3ccc(-c4nc(C(C)C)no4)cc3)CC2)nn1,135
10,CS(=O)(=O)Nc1cc([C@@H](O)CNC2CCN(c3ccc(S(=O)(=O)NCC(=O)O)cc3)CC2)ccc1O,170 to 172
11,O=C(O)c1ccc(N(CCCc2ccc(Cl)cc2)CCCc2ccc(Cl)cc2)cc1,128 to 131
12,CCCCc1ncc(/C=C(\Cc2cccs2)C(=O)O)n1Cc1ccccc1C#N,210 to 212
13,Cc1nc(-c2ccc(F)cc2)n(-c2ccc(S(N)(=O)=O)cc2)n1,220 to 221
14,COC1=CC=C2C3Cc4ccc(O)c5c4C2(CCN3C)C1O5 (configuration not stated),114 to 116
15,N#CCc1ccc(C(=O)C2CC2)cc1,86 to 87
16,COC(=O)CC(CNC(C)=O)c1cccc2ccc(OC)cc12 (configuration not stated),94 to 95
17,CCCCCS(=O)(=O)NC(=O)CCc1cc(OCc2nnc(C)o2)nn1Cc1ccc(Cl)cc1Cl,156 to 158
18,FC(F)(F)c1cccc(C2=CCN(CCc3ccc(-c4ccccc4)cc3)CC2)c1,114 to 116
19,CCCCCCNC(=O)Nc1cccc(Oc2ccc3nc(COc4ccc(CC5SC(=O)NC5=O)cc4)n(C)c3c2)c1 (configuration not stated),144 to 147
20,C=Cc1ccc(C(=O)OC(C)(C)C)c(C#N)c1,51 to 53
21,COc1ncc(OC)c(NC#N)n1,164 to 171
22,CCCN(CCC)S(=O)(=O)c1cc(-c2csc(=Nc3cccc(C)c3C)n2C)ccc1Cl,184 to 187
23,COc1cc2c(cc1OC)C(Cc1ccc([N+](=O)[O-])cc1)NCC2 (configuration not stated),134 to 136
24,O=C1Nc2ccccc2SC(c2ccccc2)=C1Cl,239 to 241
25,O=C(C=Cc1ccc(Cl)cc1Cl)c1ccccc1[N+](=O)[O-],130 to 132

row,Compound,melting point [°C]
1,O=C(NCc1cccc([N+](=O)[O-])c1)c1ccccc1,136 to 138
2,CCCCSc1ccc(C(=O)O)nc1,100 to 102
3,CCCC1=C(C(=O)OCC)C(c2cc(Cl)ccc2Cl)c2c[nH]nc2N1 (configuration not stated),162
4,CC(C)c1ccc2nc3ccc(C(=O)NCCc4cccnc4)cn3c(=O)c2c1,283 to 292
5,N#Cc1ccnc(N2CCOCC2)c1,135 to 136
6,O=C(O)c1ncn2c1[C@@H]1CCN1C(=O)c1c-2ccc(F)c1Cl,225 to 226
7,O=C(O)COc1cc(F)c(-c2ccccc2)cc1C(=O)NCc1cccc([N+](=O)[O-])c1,210 to 211
8,Clc1cnn(CCCCN2CCN(c3ccccc3)CC2)c1,58 to 61
9,CC(=O)c1cc(F)c(O)c(F)c1,141 to 143
10,C[C@]1(COc2ccc(N3CCC(COCc4ccc(C(F)(F)F)cc4)CC3)cc2)Cn2cc([N+](=O)[O-])nc2O1,172 to 173
11,C[C@H](NC(=O)c1c[nH]c2ncc(-c3cnn(C)c3)nc12)C(C)(C)C,296 to 297
12,N#CC(=C=Nc1nc2ccccc2[nH]1)C#N,340 to 345
13,Oc1ccc(CCN2CCC(=C3c4sccc4CCn4ccnc43)CC2)cc1,> 200
14,Cc1cc2c3c(ccc2cc1C#N)OC(=O)C3(C)C,215 to 217
15,Cc1c(-c2ccc(O)cc2)n(Cc2ccc(OCCCN3CCCCC3)cc2)c2ccc(O)cc12,125 to 130
16,Cc1ccccc1Cc1ccc(-c2cnn3c(O)ncnc23)cc1,274 to 279
17,CCCCc1nnc2c(NC3CCCC3)nc3ccccc3n12,195 to 197
18,CCCCNC(=O)NS(=O)(=O)c1cc(C(F)(F)F)ccc1S(=O)(=O)N(C)C,128 to 130
19,CCc1nc2ccccc2c(=O)n1-c1ccccc1C,93 to 94
20,CCN(CC)C(=O)n1cnc(Sc2c(C)cccc2C)n1,111 to 112
21,CCC(=O)Nc1cccc2c1C(=O)N(C1(C)CCC(=O)NC1=O)C2=O (configuration not stated),222 to 224
22,C=C(C(=O)c1ccc(C(=O)O)cc1)c1cc(OC)c(OC)c(-c2cccs2)c1,156 to 157
23,CCc1nn(C2CCCC2)c2cc(C(=O)NCCC(=O)NO)ccc12,166 to 169
24,CC(C)(C)OC(=O)N1CCN(C(=O)OC(C)(C)C)C1=S,117 to 118
25,CCOC(=O)c1oc2cc(Br)ccc2c1C,55 to 56

row,Compound,melting point [°C]
1,C[C@@H]1SC(N)=N[C@H]1Cc1ccccc1,89
2,CC(C)c1cccc(C(C)C)c1NC(=O)C1c2ccccc2OCc2nc(Br)ccc21 (configuration not stated),151 to 153
3,CCCCCS(=O)(=O)NC(=O)C(C)Cc1ccc(OCCOC)cc1Oc1ncc(C(F)(F)F)cc1Cl (configuration not stated),136 to 138
4,CC=CCNc1cc(C(=O)O)cc(S(N)(=O)=O)c1Oc1ccc(NC(C)=O)cc1,255 to 257
5,CSc1nc(Cc2ccccc2[N+](=O)[O-])n[nH]1,120 to 132
6,COC(=O)c1ccc(-c2ccc(NC(=O)c3ccc(OC)c(CCCN(C)C)c3)cc2)cc1,188 to 192
7,N#CCCCOc1ccc(CNc2ccc(-n3nc(-c4cccnc4)cc3C#N)cc2)cc1,128 to 129
8,Cc1cc(NC(=O)c2cnn(-c3ccc(Cl)cc3)c2C)ccc1N1CCC(N2CCOCC2)CC1,235 to 245
9,N=C(c1ccc(Cl)cc1)c1cc2ccccc2cn1,151 to 152
10,Cc1onc(NS(=O)(=O)c2ccccc2-c2ccc(-c3ncccn3)cc2Cn2ccc(C(F)(F)F)n2)c1C,108 to 114
11,O=C(c1ccc(-c2cnc3c(c2)N(Cc2cc(Cl)ccc2Cl)C(=O)CN3)cc1)N1CCC(N2CCCC2)CC1,> 200
12,O=C(O)/C=C/c1ccc(OS(=O)(=O)C(F)(F)F)cc1,194
13,O=C1Nc2cccnc2N(C(=O)CN2CCC(CCCN3CCCCC3)CC2)c2ccccc21,202 to 203
14,COc1cc2c(cc1O)CCN(C(=O)c1ccc(OC)c(OC)c1)C2=O,199 to 200
15,Nc1ccsc1[N+](=O)[O-],159
16,CCCCSCC(=O)c1cc2[nH]c(=O)[nH]c2cc1Cl,199 to 201
17,Cc1cc(Br)cnc1CCCCNC1=NS(=O)N=C1NCc1ccccc1 (configuration not stated),175 to 176
18,COC(=O)Cc1ccc(OCCNC(=O)C2Cc3ccccc3N2S(=O)(=O)c2ccc(-c3ccc(F)cc3F)cc2)cc1 (configuration not stated),60 to 64
19,C=CC(C)(C)CC(=O)C(=O)Nc1ccc2c(c1)C(=O)OC2,103 to 104
20,Cc1cccc(C)c1-c1cc(C(N)=O)ccc1C(N)=O,246 to 248
21,CCOC(=O)C=Cc1ccc(N[C@@H](CCC(N)=O)C(=O)O)cc1,192 to 193
22,O=C1C2=C(CCCC2)C(SSC2C3=C(CCCC3)C(=O)N2c2ccc(Cl)cc2F)N1c1ccc(Cl)cc1F (configuration not stated),146 to 147
23,CC(C)c1cccc(C(C)C)c1NC(=O)C(N)Cc1c[nH]c2ccccc12 (configuration not stated),185 to 187
24,O=c1nc(-c2cccc(CNS(=O)(=O)c3ccccc3)n2)sc2ccccc12,207 to 208
25,O=C1CCC(=O)N1[C@H]1CC[C@H](Nc2nccc(-n3nnc4ccccc43)n2)CC1,205 to 210

row,Compound,melting point [°C]
1,Cc1cnc2c(NC(=O)c3ccccc3[N+](=O)[O-])cccc2c1-n1ccnc1,199 to 204
2,COc1cc(C=CC(=O)c2ccc(OC)c(OC)c2OC)cc(OC)c1,112
3,CCCCCCCCCCCCn1c(=O)c(=O)[nH]c2c3ccccc3ccc21,180
4,O=C1C(=Cc2ccccc2)CCCC1c1ccccc1 (configuration not stated),75 to 78
5,CC1CC(NC=O)=NN1c1ccc(Cl)cc1 (configuration not stated),112 to 113
6,CCCCCCCCCCOc1ccc2c(=O)c3cccc(C(=O)OCC)c3oc2c1CCC(=O)OCC,69 to 70
7,CCCC(=O)C1=C(n2cccn2)CC(C2CCCSC2)CC1=O (configuration not stated),127
8,O=C(Nc1c(C(=O)O)[nH]c2cc(Cl)cc(Cl)c12)c1ccccc1Cc1ccccc1,234 to 235
9,Oc1nc(Cc2ccccc2)nc(O)c1-c1ccccc1,337
10,Clc1ccc(Cn2nncc2CN2CCC(c3ccccc3)(c3ccccc3)CC2)cc1,195
11,Cc1cc(C)cc(-c2[nH]c3ccc(C(=O)O)cc3c2CCN(CCCCc2ccc(NS(C)(=O)=O)cc2)C(=O)OCc2ccccc2)c1,212 to 213
12,O=C(CC1CCC1)N[C@H]1CC[C@H](CCN2CCC(c3cccc4c3CCO4)CC2)CC1,196
13,CNc1cc(S(=O)(=O)c2ccc(N)cc2)cc(C)n1,126 to 127
14,CC(C)c1ccc(C(=O)C2=C(O)C(=O)N(c3ncc(S(=O)(=O)c4ccc([N+](=O)[O-])cc4)s3)C2c2ccc(OC(F)(F)F)cc2)cc1 (configuration not stated),276 to 278
15,O=C(NCCBr)C1=C(C(=O)Nc2cc(OC3CCCC3)c(Cl)cc2F)CCCC1,140 to 142
16,COC(=O)Cc1cn(C2CCCCC2)nc1O,135 to 136
17,CC(C)(C)c1nc2cc3c(cc2[nH]1)NC(=O)C3(C)C,> 300
18,COc1ccc(C(=O)Nc2ccc(C(=O)O)cc2)cc1C(C)(C)C,250
19,O=C1C2=C(CCCC2)C(=O)N1c1ccc(O)cc1F,132 to 136
20,C[C@H](NC(=O)COCCNC(=O)C12CC3CC(CC(C3)C1)C2)C(=O)N[C@H](CCC(=O)O)C(N)=O,84 to 86
21,COc1ccc(N2C(=O)C(C)(C)N(c3ccc(Oc4ccccc4)cc3)C2=S)cc1,144
22,CCN(CC)CCCCNc1ncc2cc(-c3c(Cl)cccc3Cl)c(NC(=O)Nc3ccccc3)nc2n1,81 to 87.5

# Source: a melting point compilation (Tetko et al.; mined from patent text by program, amines drawn as free bases though some values may be those of a salt)
